Molecular target: T1, CB2 receptor (Mus musculus, UniProt P47936)
T1 construct: membranes were prepared from frozen mouse spleen; from tissue; host or cells: mouse spleen membranes
Assay: CB2 receptor binding assay ([3H] CP-55,940 displacement, mouse spleen membranes)
Conditions: CB2 (mouse spleen) versus CB1 (rat forebrain membranes) binding affinity
Method: As used herein, “binding affinity” (Ki) is represented by the IC50 value which is the concentration of an analog required to occupy the 50% of the total number (Bmax) of the receptors. The lower the IC50 value the higher the binding affinity. […] The AM1703 material was tested for CB2 receptor binding affinity and for CB1 receptor affinity (to determine selectivity for the CB2 receptor).
Membranes, previously frozen at −80° C., were thawed on ice. To the stirred suspension was added three volumes of TME (25 mM Tris-HCI buffer, 5 mM MgCl2 and 1 mM EDTA) at a pH 7.4. The suspension was incubated at 4° C. for 30 min. At the end of the incubation, the membranes were pelleted and washed three times with TME.
The treated membranes were subsequently used in the binding assay described below. Approximately 30 μg of membranes were incubated in silanized 96-well microtiter plate with TME containing 0.1% essentially fatty acid-free bovine serum albumin (BSA), 0.8 nM [^3H] […] Radioactivity was detected using MicroScint 20 scintillation cocktail added directly to the dried filterplates, and the filterplates were counted using a Packard Instruments Top-Count. Nonspecific binding was assessed using 100 nM CP-55,940. […] CP-55,940, determined using buffer and 100 nM CP-55,940. The normalized data was analyzed using a 4-parameter nonlinear logistic equation to yield IC50 values. […]

T1 sequence (P47936 whole entry): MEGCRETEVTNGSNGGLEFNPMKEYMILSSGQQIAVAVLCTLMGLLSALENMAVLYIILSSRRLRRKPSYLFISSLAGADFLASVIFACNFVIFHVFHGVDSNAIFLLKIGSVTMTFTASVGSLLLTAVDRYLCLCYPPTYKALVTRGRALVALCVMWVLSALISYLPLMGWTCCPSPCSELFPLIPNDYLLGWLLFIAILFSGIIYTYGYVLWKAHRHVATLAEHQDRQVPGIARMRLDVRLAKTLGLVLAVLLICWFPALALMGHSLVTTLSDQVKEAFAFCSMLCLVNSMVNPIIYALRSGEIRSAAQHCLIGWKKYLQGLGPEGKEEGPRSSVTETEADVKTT

In the case of C#CCCCCC(C)(C)c1cc(O)c([C@@H]2CC(=O)[C@@H]3C[C@H]2C3(C)C)c(O)c1 [AM1703], the “CB2 selectivity over CB1” value is reported as about 500 fold.

From patent US7335688B2, “Bicyclic cannabinoid agonists for the cannabinoid receptor” (University of Connecticut, priority 1999, dated 2008)
